The source of these data is paper PMC11481871, “Discovery of GuaB inhibitors with efficacy against Acinetobacter baumannii infection” (mBio, 2024).

Read-outs that look alike come from different tables or passages of the source.

The data set is described as follows: In vivo pharmacokinetic study, 24-h i.v. infusion. Also on record: species or system mouse. The conditions noted are these: mice; for AUC(0-t): female, CD-1, mouse, whole blood, iv, read-out: exposure AUC0-24. Here is the method:
Two female CD-1 mice were given a 750 mg/kg of 24 h i.v. infusion dose of G2. […] Two female CD-1 mice were given a 250 mg/kg of 24-h i.v. infusion dose of G1. Another group of two mice received 250 mg/kg of 24-h i.v. infusion dose of G1 with a 150 mg/kg ABT PO dose of pretreatment at 2 h prior the i.v. infusion. Ten microliters of blood was collected accurately at 0.5, 1, 2, 4, 6, 8, and 24 h after infusion start. Blood samples were then immediately placed into labeled polypropylene micro-centrifuge tubes containing 40 µL of 1.7 mg/mL potassium (K2) EDTA in water, mixed, and then frozen and stored at −70°C until bio-analysis.
G2, G1, ABT, and 4-MP blood concentrations in mouse PK studies were determined by LC-MS/MS. All samples were prepared by protein precipitation. Chromatographic separations were achieved using an ACQUITY CM UPLC system (Waters, Milford, MA) including an ACQUITY BSM solvent delivery system, an ACQUITY SM autosampler, and an ACQUITY CM column oven. For G1, G2, and ABT, an ACQUITY UPLC HSS T3 column (2.1 × 50 mm, 1.8 µm) was used. For 4-MP, an ACQUITY UPLC BEH Amide column (2.1 × 50 mm, 1.7 µm) was used. Gradient elution that contained 0.1% formic acid in water and 0.1% formic acid in acetonitrile was used for G1, ABT, and 4-MP. Gradient elution that contained 0.1% formic acid with 2 mM ammonium formate in water/acetonitrile (vol/vol, 95:5) was used for G2. The LC flow rate was 0.6 mL/min for G1, G2, and ABT, and 0.5 mL/min for 4-MP. The sample injection volume was 1 µL for ABT, G1, and G2, and 2 µL for 4-MP. A QTrap 5500/6500 tandem mass spectrometer (SCIEX, Foster City, CA) with TurboIonSpray interface was operated in positive ionization mode with multiple reaction monitoring (MRM) for LC-MS/MS analysis. The mass spectrometer was operated at unit mass resolution for both Q1 and Q3 quadrupoles. The precursor to product ion transitions of analytes are presented as Q1/Q3 ratios for each compound: 4-MP (83.0/56.1), G1 (383.1/197.1), G2 (399.1/171.0), and ABT (135.0/80.1). The standard curves cover the ranges of 0.005 µg/mL–11.7 µg/mL, 0.005 µg/mL–33.4 µg/mL, 0.05 µg/mL–334 µg/mL, and 1.37 µg/mL–334 µg/mL for G1, G2, ABT, and 4-MP, respectively.

Turning to `C[C@H](Nc1ccc2ncc3c(c2c1)CCOC3)C(=O)Nc1ccc(Cl)nc1` [G1, (2S)-N-(6-chloro-3-pyridyl)-2-(2,4-dihydro-1H-pyrano[3,4-c]quinolin-9 ylamino)propanamide], the AUC(0-t) (24-h i.v. infusion 250 mg/kg, co-administered 150 mg/kg ABT) stood at 692 µM·h. In addition, for the setting “250 mg/kg 24-h i.v. infusion”, the “exposure higher than without co-administration with ABT” value is given as “fourfold”.

`C[C@H](Nc1ccc2ncc(CO)cc2c1)C(=O)Nc1ccc(Cl)c(N(C)C)c1` [G2, (2S)-N-[4-chloro-3-(dimethylamino)phenyl]-2-[[3-(hydroxymethyl)-6-quinolyl]amino]propanamide]: the AUC(0-t) (24-h i.v. infusion 750 mg/kg, co-administered 150 mg/kg ABT and 100 mg/kg 4-MP) is 21300 µM·h. Under “750 mg/kg 24-h i.v. infusion”, the “exposure higher than without co-administration with ABT and 4-MP” value was 100 fold.
